Reference: patent US4975374A (priority 1987, dated 1990)

Assays:
[1] = test system: E. coli transformants; experiment: Fragment exchange: transformants selected for PPT resistance; format: cell-based
Source text: (§1) Tables I and II show the results obtained.

[2] = molecular target: T1, PPT resistant mutant GS (lys 332) (pCGS3-LYS332) (Medicago sativa, UniProt P04078, R332K); experiment: biochemical; design: species or system alfalfa; settings: read-out: Relative GS Enzyme Activity
T1 construct: made in house; host or cells: E. coli FDB213 (glnA deletion), clarified lysate
Procedure: (§2) The cells were collected by centrifugation at 5,000 r.p.m. (5° C.) for 5 min, resuspended in 1.0 ml 10mM Tris-HCl, pH 7.5, 1 mM EDTA, 5 mM beta-mercaptoethanol, and lysed by sonication.

[3] = test system: E. coli containing pCGS3; experiment: Replating on M9 with PPT, plasmid pCGS3; format: cell-based
Source text: as §1

[4] = molecular target: T2, wild-type GS (pCGS3) (Medicago sativa, UniProt P04078); experiment: Inhibition of GS activity by PPT, lysate of E. coli FDB213 containing pCGS3; format: biochemical, alfalfa; settings: read-out: Relative GS Enzyme Activity
T2 construct: made in house; host or cells: E. coli FDB213 (glnA deletion), clarified lysate
T2 sequence (P04078 1-356): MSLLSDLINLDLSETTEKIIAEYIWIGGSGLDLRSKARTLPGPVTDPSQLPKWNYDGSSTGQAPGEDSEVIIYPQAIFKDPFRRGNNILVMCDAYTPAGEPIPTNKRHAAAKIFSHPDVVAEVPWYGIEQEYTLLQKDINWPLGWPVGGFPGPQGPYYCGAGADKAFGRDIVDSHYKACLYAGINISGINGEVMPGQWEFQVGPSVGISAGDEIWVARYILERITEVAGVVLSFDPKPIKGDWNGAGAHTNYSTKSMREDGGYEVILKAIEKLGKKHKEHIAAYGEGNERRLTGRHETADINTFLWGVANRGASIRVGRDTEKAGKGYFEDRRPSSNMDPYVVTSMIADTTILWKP
Procedure: as §2

[5] = molecular target: T3, PPT resistant mutant GS (ser 245) (pCGS3-SER245) (Medicago sativa, UniProt P04078, G245S); experiment: Inhibition of GS activity by PPT, lysate of E. coli FDB213 containing pCGS3-Ser245; format: biochemical, alfalfa; settings: read-out: Relative GS Enzyme Activity
T3 construct: made in house; host or cells: E. coli FDB213 (glnA deletion), clarified lysate
Procedure: as §2

[6] = molecular target: T4, pea leaf glutamine synthetase (Pisum sativum, UniProt P08281); settings: mixed competitive inhibitor; cited from earlier work
T4 sequence (P08281 50-430): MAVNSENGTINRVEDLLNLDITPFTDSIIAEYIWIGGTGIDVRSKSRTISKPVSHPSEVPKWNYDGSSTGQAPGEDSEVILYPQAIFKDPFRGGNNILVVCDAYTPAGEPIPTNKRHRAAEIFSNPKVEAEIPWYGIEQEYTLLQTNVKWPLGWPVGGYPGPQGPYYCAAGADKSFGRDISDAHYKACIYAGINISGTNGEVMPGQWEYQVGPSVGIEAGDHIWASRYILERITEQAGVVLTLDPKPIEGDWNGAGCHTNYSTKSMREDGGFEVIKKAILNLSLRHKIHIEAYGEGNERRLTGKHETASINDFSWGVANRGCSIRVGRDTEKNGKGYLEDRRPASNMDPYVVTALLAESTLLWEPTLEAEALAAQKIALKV

T3 sequence (P04078 whole entry G245S): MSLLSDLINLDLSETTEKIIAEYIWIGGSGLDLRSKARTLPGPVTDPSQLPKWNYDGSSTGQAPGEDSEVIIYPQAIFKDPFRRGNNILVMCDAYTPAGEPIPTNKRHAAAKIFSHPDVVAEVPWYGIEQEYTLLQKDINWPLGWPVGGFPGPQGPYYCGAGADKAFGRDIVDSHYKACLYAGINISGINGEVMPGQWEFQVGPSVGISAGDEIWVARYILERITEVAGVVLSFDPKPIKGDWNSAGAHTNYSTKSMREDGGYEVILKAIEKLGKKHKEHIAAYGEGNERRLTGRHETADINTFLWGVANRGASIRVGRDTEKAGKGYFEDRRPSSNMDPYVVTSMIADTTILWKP
T1 sequence (P04078 whole entry R332K): as the sequence (P04078 whole entry G245S) above, with S245G, R332K counted along it

## CP(=O)(O)CC[C@H](N)C(=O)O [L-PPT, L-phosphinothricin]
[1]; 9: CCC pCGS3
  NUMBER OF COLONIES M9 AMP + 3 mM L-PPT: 100
[1]; 10: CCC pCGS3 PPT^r
  NUMBER OF COLONIES M9 AMP + 3 mM L-PPT: > 1000
[1]; ligation 2: insert PPT^r SalI-NcoI, vector SalI-NcoI
  NUMBER OF COLONIES M9 AMP + 3 mM L-PPT: 8
[1]; ligation 4: insert PPT^r NcoI-EcoRI, vector NcoI-EcoRI
  NUMBER OF COLONIES M9 AMP + 3 mM L-PPT: 6
[1]; ligation 6: insert PPT^r EcoRI-HindIII, vector EcoRI-HindIII
  NUMBER OF COLONIES M9 AMP + 3 mM L-PPT: 300
[1]; ligation 8: insert PPT^r HindIII-BamHI, vector HindIII-BamHI
  NUMBER OF COLONIES M9 AMP + 3 mM L-PPT: 2

## CP(=O)(O)CC[C@H](N)C(=O)O [PPT, phosphinothricin]
[2]
  remaining activity at 4 µM: 103%
  remaining activity at 25 µM: 103%
  remaining activity at 62.5 µM: 103%
  remaining activity at 125 µM: 100%
  remaining activity at 250 µM: 98.5%
  remaining activity at 2000 µM: 78.2%
  remaining activity at 20000 µM: 23.8%
[3]; M9/6 mM PPT, from LB
  growth on replating: 0
[3]; M9/6 mM PPT, from M9
  growth on replating: 0
[3]; M9/12 mM PPT, from LB
  growth on replating: 0
[3]; M9/12 mM PPT, from M9
  growth on replating: 0
[4]; 4 uM PPT
  remaining activity at 4 µM: 102%
[4]; 25 uM PPT
  remaining activity at 25 µM: 95.7%
[4]; 62.5 uM PPT
  remaining activity at 62.5 µM: 84%
[4]; 125 uM PPT
  remaining activity at 125 µM: 68%
[4]; 250 uM PPT
  remaining activity at 250 µM: 42.7%
[4]; 2 mM PPT
  remaining activity at 2000 µM: 15%
[4]; 20 mM PPT
  remaining activity at 20000 µM: 4.3%
[5]
  remaining activity at 4 µM: 103%
  remaining activity at 25 µM: 103%
  remaining activity at 62.5 µM: 97.3%
  remaining activity at 125 µM: 91.4%
  remaining activity at 250 µM: 80.6%
  remaining activity at 2000 µM: 30.7%
  remaining activity at 20000 µM: 5.3%

## CS(=N)(=O)CCC(N)C(=O)O (centres unmarked) [MSO, methione sulfoximine]
[6]
  Ki: 160 µM
